Measurements published in patent US7238725B2, “Tricyclic compounds useful for the treatment of inflammatory and allergic disorders: process for their preparation and pharmaceutical compositions containing them” (Glenmark Pharmaceuticals Ltd., priority 2002, dated 2007).

Legend:
[1] = target: PDE4 enzyme; assay: Inhibition of Phosphodiesterase Enzymes (PDE4), [3H]cAMP hydrolysis; type: biochemical; conditions: PDE4 enzyme, 1 μM cAMP and 3H cAMP, 34° C.; read-out: IC50
Protocol: Inhibition of Phosphodiesterase Enzymes (PDE4)
In this assay, PDE4 enzyme converts [^3H] cAMP to the corresponding [^3H] 5′-AMP in proportion to the amount of PDE4 present The [^3H] 5′-AMP then was quantitatively converted to free [^3H] adenosine and phosphate by the action of snake venom 5′-nucleotidase.
The assay was performed with modification of the method of Thompson and Appleman (Biochemistry; 1971; 10; 311-316) and Schwartz and Passoneau (Proc. Natl. Acad. Sci. U.S.A. 1974; 71; 3844-3848), both references incorporated herein by reference in their entirety, at 34° C. In a 200 ul total reaction mixture, the reaction mixture contained 12.5 mM of Tris, 5 mM MgCl2, 1 μM cAMP (cold) and ^3H cAMP (0.1 uCi), (Amersham). […] Drug samples were then added in the reaction mixture (25 μl/tube). The assay was initiated by addition of enzyme mix (75 μl) and the mixture was incubated for 20 minutes at 34° C. The reaction was stopped by boiling the tubes for 2 mins at 100° C. in a water bath. After cooling on ice for 5 minutes and addition of 50 ug/reaction of 5′-nucleotidase snake venom from Crotalus atrox incubation was carried out again for 20 min. at 34° C. The unreacted substrate was separated from (^3H) Adenosine by addition of Dowex AG 1-X8 (Biorad Lab), (400 ul) which was prequilibrated (1:1:1) in water and ethanol. Reaction mixture was then thoroughly mixed, placed on ice for 15 minutes, vortexed and centrifuged at 14,000 r.p.m. for 2 mins. After centrifugation, a sample of the supernatant was taken and added in 24 well optiplates containing Scintillant (1 ml) and mixed well. The samples in the plates were then determined for radioactivity in a Top Counter and the PDE4 activity was estimated. PDE4 enzyme was present in quantities that yield <30% total hydrolysis of substrate (linear assay conditions).
Results were expressed as percent inhibition (IC50) in nM concentrations. The IC50 values were determined from the concentration curves by nonlinear regression analysis.
The IC50 value for the compound examined was determined from concentration-response curves in which varying range of concentrations were considered as shown in table 1

Compound | IC50 [1] | melting point
CCOc1ccc(C(=O)Nc2c(Cl)cncc2Cl)c2c1oc1ccccc12 [Example 60, 3,5-Dichloro-4-(4-ethoxydibenzo[b,d]furan-1-ylcarboxamido)pyridine] | 86.4 nM | 
O=C(Nc1cccnc1)c1ccc(OCC2CC2)c2oc3ccccc3c12 [Example 29, N-(pyrid-3-yl)-4-cyclopropylmethoxy dibenzo[b,d]furan-1-carboxamide] | 351 nM | 
O=C(Nc1cccnc1)c1ccc(OC(F)F)c2oc3ccc(C(F)(F)F)cc3c12 [Example 16, N-(pyrid-3-yl)-4-difluoromethoxy-8-trifluoromethyl dibenzo[b,d]furan-1-carboxamide] |  | 235 to 236 °C
COc1ccc(C(=O)Nc2ccncc2)c2c1oc1ccccc12 [Example 3, N-(pyrid-4-yl)-4-methoxy dibenzo[b,d]furan-1-carboxamide] | 8.68 nM | 
O=C(Nc1c(Cl)cncc1Cl)c1ccc(OCc2ccccc2)c2oc3ccccc3c12 [Example 37, N-(3,5-dichloropyrid-4-yl)-4-benzyloxy dibenzo[b,d]furan-1-carboxamide] |  | 269 to 270 °C (dec.)
O=C(Nc1ccc(Cl)cn1)c1ccc(OC(F)F)c2oc3ccccc3c12 [Example 24, N-(5-chloropyrid-2-yl)-4-difluoromethoxy dibenzo[b,d]furan-1-carboxamide] |  | 155 to 157 °C
O=C(Nc1cccnc1)c1ccc(OC(F)F)c2oc3ccccc3c12 [Example 22, N-(pyrid-3-yl)-4-difluoromethoxy dibenzo[b,d]furan-1-carboxamide] | 105 nM | 
O=C(Nc1cc[n+]([O-])cc1)c1ccc(OC(F)F)c2oc3ccc(C(F)(F)F)cc3c12 [Example 15, N-(pyrid-4-yl)-4-difluoromethoxy-8-trifluoromethyl dibenzo[b,d]furan-1-carboxamide-N1-oxide] | 67.3 nM | 
COc1ccc(C(=O)Nc2ccncc2)c2c1[nH]c1ccccc12 [Example 79, N4-(4-pyridyl)-1-methoxy-9H-4-carbazole carboxamide] | 128 nM | 
CCOc1ccc(C(=O)Nc2c(Cl)c[n+]([O-])cc2Cl)c2c1oc1ccccc12 [Example 68, 3,5-Dichloro-4-(4-ethoxydibenzo[b,d]furan-1-ylcarboxamido)pyridine-N-oxide] | 57 nM | 
COc1ccc(S(=O)(=O)Nc2c(Cl)cccc2Cl)c2c1[nH]c1ccccc12 [Example 77, N4-(2,6-Dichlorophenyl)-1-methoxy-9H-4-carbazolsulphonamide] |  | 201 to 205 °C
O=C(Nc1ccncc1)c1ccc(OCC2CC2)c2oc3ccccc3c12 [Example 27, N-(pyrid-4-yl)-4-cyclopropylmethoxy dibenzo[b,d]furan-1-carboxamide] | 73.5 nM | 
COc1ccc(C(=O)Nc2ccncc2)c2c1oc1ccc(Br)cc12 [Example 43, N-(pyrid-4-yl)-4-methoxy-8-bromo-dibenzo[b,d]furan-1-carboxamide] | 61.2 nM | 
O=C(Nc1ccccn1)c1ccc(OC(F)F)c2oc3ccc(C(F)(F)F)cc3c12 [Example 18, N-(pyrid-2-yl)-4-difluoromethoxy-8-trifluoromethyl dibenzo[b,d]furan-1-carboxamide] |  | 169 to 170 °C
O=C(Nc1ccc[n+]([O-])c1)c1ccc(OC(F)F)c2oc3ccccc3c12 [Example 23, N-(pyrid-3-yl)-4-difluoromethoxy dibenzo[b,d]furan-1-carboxamide-N1-oxide] | 147 nM | 
COc1c(C(=O)Nc2c(Cl)cncc2Cl)ccc2c1oc1ccccc12 [Example 52, N-(3,5-dichloropyrid-4-yl)-4-methoxy dibenzo[b,d]furan-3-carboxamide] |  | 176 °C (dec.)
COc1ccc(C(=O)Nc2ccncc2)c2c1oc1ccc([N+](=O)[O-])cc12 [Example 39, N-(pyrid-4-yl)-4-methoxy-8-nitro dibenzo[b,d]furan-1-carboxamide] | 31.7 nM | 
COc1ccc(C(=O)Nc2ccncc2)c2c1oc1ccc(I)cc12 [Example 46, N-(pyrid-4-yl)-4-methoxy-8-iodo-dibenzo[b,d]furan-1-carboxamide] | 36.8 nM | 
O=C(Nc1ccncc1)c1ccc(OC(F)F)c2oc3ccccc3c12 [Example 20, N-(pyrid-4-yl)-4-difluoromethoxy dibenzo[b,d]furan-1-carboxamide] | 15.8 nM | 
O=C(Nc1cc[n+]([O-])cc1)c1ccc(OC(F)F)c2oc3ccccc3c12 [Example 21, N-(pyrid-4-yl)-4-difluoromethoxy dibenzo[b,d]furan-1-carboxamide-N1-oxide] | 22.6 nM | 

Results, then the compound that gave them:

IC50 [1] | melting point | Compound
39.6 nM |  | COc1ccc(Cn2c3ccc(Cl)cc3c3c(C(=O)Nc4c(Cl)c[n+]([O-])cc4Cl)ccc(OC)c32)cc1 [Example 98, N4-(3,5-dichloro-4-pyridyl-N-oxide)-6-chloro-9-(4-methoxybenzyl)-1-methoxy-9H-4-carba-zolecarboxamide]
30.1 nM |  | COc1ccc(C(=O)Nc2c(Cl)c[n+]([O-])cc2Cl)c2c3cc(Cl)ccc3n(CC3CCCCC3)c12 [Example 99, N4-(3,5-dichloro-4-pyridyl-N-oxide)-6-chloro-9-cyclohexylmethyl-1-methoxy-9-H-4-carbazolecarboxamide]
40.3 nM |  | COc1ccc(C(=O)Nc2c(Cl)c[n+]([O-])cc2Cl)c2c3cc(Cl)ccc3n(Cc3ccc(F)cc3)c12 [Example 97, N4-(3,5-dichloro-4-pyridyl-N-oxide)-6-chloro-9-(4-fluorobenzyl)-1-methoxy-9H-4-carbazolecarboxamide]
78.9 nM |  | COc1ccc(C(=O)Nc2c(Cl)cncc2Cl)c2c3cccc(Cl)c3n(Cc3ccc(F)cc3)c12 [Example 95, N4-(3,5dichloro-4pyridyl)-8-chloro-9-(4-Fluorobenzyl)-1-methoxy-9H-4-carbazole carboxamide]
72 nM |  | COc1ccc(C(=O)Nc2c(Cl)cncc2Cl)c2c3ccccc3n(Cc3ccc(F)cc3)c12 [Example 86, N4-(3,5-dichloro-4-pyridyl)-9-(4-fluorobenzyl)-1-methoxy-9H-4-carbazole carboxamide]
14.6 nM |  | COc1ccc(C(=O)Nc2c(Cl)cncc2Cl)c2c3cc(Cl)ccc3n(Cc3ccc(F)cc3)c12 [Example 84, N4-(3,5-dichloro-4-pyridyl)-6-chloro-9-(4-fluorobenzyl)-1-methoxy-9H-4-carbazole carboxamide]
19.6 nM |  | COc1ccc(C(=O)Nc2c(Cl)cncc2Cl)c2c3cc(Cl)ccc3n(Cc3ccccc3)c12 [Example 82, N4-(3,5-dichloro-4-pyridyl)-9-benzyl-6-chloro-1-methoxy-9H-4-carbazole carboxamide]
8.15 nM |  | COc1ccc(Cn2c3ccc(Cl)cc3c3c(C(=O)Nc4c(Cl)cncc4Cl)ccc(OC)c32)cc1 [Example 85, N4-(3,5-dichloro-4-pyridyl)-6-chloro-9-(4-methoxybenzyl)-1-methoxy-9H-4-carbazolecarboxamide]
129 nM |  | COc1ccc(C(=O)Nc2c(Cl)cncc2Cl)c2c3ccccc3n(Cc3ccccc3)c12 [Example 88, N4-(3,5-dichloro-4-pyridyl)-9-benzyl-1-methoxy-9H-4-carbazolecarboxamide]
393 nM |  | COc1ccc(C(=O)Nc2ccncc2)c2c3ccccc3n(Cc3ccc(F)cc3)c12 [Example 87, N4-(4-pyridyl)-9-(4-fluorobenzyl)-1-methoxy-9H-4-carbazole carboxamide]
281 nM |  | COc1ccc(C(=O)Nc2c(Cl)cncc2Cl)c2c3cccc(Cl)c3n(CC3CCCCC3)c12 [Example 94, N4-(3,5dichloro-4-pyridyl)-8-chloro-9-cyclohexylmethyl-1-methoxy-9H-4-carbazole carboxamide]
5.26 nM |  | COc1ccc(C(=O)Nc2c(Cl)cncc2Cl)c2c3cc(Cl)ccc3n(CC3CCCCC3)c12 [Example 83, N4-(3,5-dichloro-4-pyridyl)-6-chloro-9-cyclohexylmethyl-1-methoxy-9H-4-carbazole carboxamide]
21.5 nM |  | O=C(Nc1c(Cl)cncc1Cl)c1ccc(OC(F)F)c2oc3ccc(N4CCCC4=O)cc3c12 [Example 121, N-(3,5-dichloropyrid-4-yl)-4-difluoromethoxy-8-(pyrrolidine-2-one-1-yl)-dibenzo[b,d]furan-1-carboxamide]
161 nM |  | COc1ccc(C(=O)Nc2ccncc2)c2c3cc(Cl)ccc3n(Cc3ccc(F)cc3)c12 [Example 93, N4-(4-pyridyl)-6-chloro-9-(4-fluorobenzyl)-1-methoxy-9H -4-carbazolecarboxamide]
37.4 nM |  | COc1ccc(NS(=O)(=O)c2ccc(OC)c3sc4ccc(S(=O)(=O)N(C)C)cc4c23)cc1 [Example 115, N1-(4-methoxyphenyl)-8,N8-dimethyl-4-methoxydibenzo[b,d]thiophen-8,1-disulfonamide]
